Laboratory results from patent EP0531119B1, “N,N',N'-trisubstituted -5-bis-aminomethylene-1,3-dioxane-4,6-dione inhibitors of acyl-CoA: cholesterol-acyl transferase” (AMERICAN HOME PRODUCTS CORPORATION, priority 1991, dated 1993).
pIC50: −log10 of the molar value.

Key:
[1] = test system: ¹⁴C-Cholesterol Absorption; experiment: In vivo 14C-cholesterol absorption in normal rats; details: oral gavage, blood samples six hours later
Protocol: Representative compounds were further tested in vivo to establish the percent inhibition of cholesterol absorption. In this study, normal rats were dosed (oral gavage) with ¹⁴C-cholesterol plus the test compound. Blood samples taken exactly six hours later were analyzed and the percent inhibition of cholesterol absorption was calculated as shown in: Table II

[2] = test system: acyl-coenzyme A: cholesterol acyltransferase; experiment: Inhibition of intracellular cholesterol esterification (ACAT), test procedure of Ross et al.; assay type: cell-based; details: for % Inhib, (Concentration - µM): 25 µM; for pIC50: read-out: IC₅₀
Excerpt: The ability of the compounds of this invention to inhibit acyl-coenzyme A: cholesterol acyltransferase was established by initially showing that they inhibited intracellular cholesterol esterification by subjecting them to the standard experimental test procedure of Ross et al., J. Biol. Chem. 259 815 (1984). The results of these studies are presented in: Table I

SMILES	% Inhibition of Absorption ([1]; dose 3 mg/kg) [%]	% Inhib, (Concentration - µM) [2]	pIC50 [2]	% Inhibition of Absorption ([1]; dose 10 mg/kg) [%]
CCCCCCN(Cc1ccnc2ccccc12)C(Nc1ccc(OC)cc1OC)=C1C(=O)OC(C)(C)OC1=O [Example 2, 5-[[(2,4-Dimethoxyphenyl)amino][hexyl(4-quinolinylmethyl)amino]methylene]-2,2-dimethyl-1,3-dioxane-4,6-dione]	2			
CCCCCCN(Cc1ccc2ccccc2n1)C(Nc1cc(C(C)(C)C)c(O)c(C(C)(C)C)c1)=C1C(=O)OC(C)(C)OC1=O [Example 3, 5-[[[3,5-Bis(1,1-dimethylethyl)-4-hydroxyphenyl]amino][hexyl(2-quinolinylmethyl)amino]methylene]-2,2-dimethyl-1,3-dioxane-4,6-dione]	11	55 (25) %	5.63	
CCCCCCN(Cc1ccc2ccccc2n1)C(Nc1ccc(OC)cc1OC)=C1C(=O)OC(C)(C)OC1=O [Example 4, 5-[[(2,4-Dimethoxyphenyl)amino][hexyl(2-quinolinylmethyl)amino]methylene]-2,2-dimethyl-1,3-dioxane-4,6-dione]		72 (25) %	5.29	
CCCCCC(C)N(Cc1ccc2ccccc2n1)C(Nc1ccc(OC)cc1OC)=C1C(=O)OC(C)(C)OC1=O (centres unmarked) [Example 5]		90 (25) %	5.62	
CCCCCC(C)N(Cc1ccc2ccccc2n1)C(Nc1cc(C(C)(C)C)c(O)c(C(C)(C)C)c1)=C1C(=O)OC(C)(C)OC1=O (centres unmarked) [Example 6]		95 (25) %	5.81	
CCCCCC(C)N(Cc1ccnc2ccccc12)C(Nc1ccc(OC)cc1OC)=C1C(=O)OC(C)(C)OC1=O (centres unmarked) [Example 7, 5-[[(2,4-Dimethoxyphenyl)amino][(1-methylhexyl)(4-quinolinylmethyl)amino]methylene]-2,2-dimethyl-1,3-dioxane-4,6-dione]		51 (25) %	5.03	
CCCCCC(C)N(Cc1ccnc2ccccc12)C(Nc1cc(C(C)(C)C)c(O)c(C(C)(C)C)c1)=C1C(=O)OC(C)(C)OC1=O (centres unmarked) [Example 8, 5-[[[3,5-Bis(1,1-dimethylethyl)-4-hydroxyphenyl]amino][(1-methylhexyl)(4-quinolinylmethyl)amino]methylene]-2,2-dimethyl-1,3-dioxane-4,6-dione]		97 (25) %	5.78	
CCCCCCN(Cc1cnc2ccccc2c1)C(Nc1cc(C(C)(C)C)c(O)c(C(C)(C)C)c1)=C1C(=O)OC(C)(C)OC1=O [Example 9, 5-[[[3,5-Bis(1,1-dimethylethyl)-4-hydroxyphenyl]amino][hexyl(3-quinolinylmethyl)amino]methylene]-2,2-dimethyl-1,3-dioxane-4,6-dione]		98 (25) %	5.87	
CCCCCCN(Cc1ccncc1)C(Nc1cc(C(C)(C)C)c(O)c(C(C)(C)C)c1)=C1C(=O)OC(C)(C)OC1=O [Example 10, 5-[(3,5-Di-tert-butyl-4-hydroxy-phenylamino)-(hexyl-(pyridin-4-ylmethyl)-amino)-methylene]-2,2-dimethyl-1,3-dioxane-4,6-dione]		94 (25) %	5.24	
CCCCCCN(Cc1ccncc1)C(Nc1ccc(OC)cc1OC)=C1C(=O)OC(C)(C)OC1=O [Example 11]		24 (25) %		
CCCCCCN(Cc1ccccn1)C(Nc1cc(C(C)(C)C)c(O)c(C(C)(C)C)c1)=C1C(=O)OC(C)(C)OC1=O [Example 12, 5-[(3,5-Di-tert-butyl-4-hydroxy-phenylamino)-(hexyl-(pyridin-2-ylmethyl)-amino]-methylene]-2,2-dimethyl-[1,3]-dioxane-4,6-dione]		92 (25) %	5.39	65
CCCCCCN(Cc1ccccn1)C(Nc1ccc(OC)cc1OC)=C1C(=O)OC(C)(C)OC1=O [Example 13, 5-[(2,4-Dimethoxyphenylamino)-[hexyl-(pyridin-2-ylmethyl)-amino]-methylene]-2,2-dimethyl-[1,3]-dioxane-4,6-dione]		26 (25) %		
CCCCCCN(Cc1cccnc1)C(Nc1ccc(OC)cc1OC)=C1C(=O)OC(C)(C)OC1=O [Example 14, 5-[(2,4-Dimethoxy-phenylamino)-[hexyl-(pyridin-3-ylmethyl)-amino]-methylene]-2,2-dimethyl-[1,3]-dioxane-4,6-dione]		18 (25) %		
CCCCCCN(Cc1cccnc1)C(Nc1cc(C(C)(C)C)c(O)c(C(C)(C)C)c1)=C1C(=O)OC(C)(C)OC1=O [Example 15, 5-[(3,5-Di-tert-butyl-4-hydroxy-phenylamino)-[hexyl-(pyridin-3-ylmethyl)-amino]-methylene]-2,2-dimethyl-1,3-dioxane-4,6-dione]	48	97 (25) %	5.41	
CCCCCCCN(Cc1ccc(CC(C)(C)C)s1)C(Nc1ccc(OC)cc1OC)=C1C(=O)OC(C)(C)OC1=O [Example 16, 5-[[(2,4-Dimethoxyphenyl)amino][[[5-(2,2-dimethylpropyl)-2-thienyl]methyl]heptylamino]-methylene]-2,2-dimethyl-1,3-dioxane-4,6-]		94 (25) %	5.53	
CCCCCCCN(Cc1ccc(CC(C)(C)C)s1)C(Nc1cc(C(C)(C)C)c(O)c(C(C)(C)C)c1)=C1C(=O)OC(C)(C)OC1=O [Example 17, 5-[[[3,5-Bis(1,1-dimethylethyl)-4-hydroxyphenyl]amino][[[5-(2,2-dimethylpropyl)-2-thienyl]methyl]heptylamino]methylene]-2,2-dimethyl-1,3-dioxane-4,6-dione]			6.15	
CCCCCC(C)N(Cc1ccc(CC(C)(C)C)s1)C(Nc1ccc(OC)cc1OC)=C1C(=O)OC(C)(C)OC1=O (centres unmarked) [Example 18, 5-[[(2,4-Dimethoxyphenyl)amino][[[5-(2,2-dimethylpropyl)-2-thienyl]methyl](1-methylhexyl)-amino]methylene]-2,2-dimethyl-1,3-dioxane-4,6-dione]		97 (25) %		
CCCCCCC(C)N(Cc1ccc(CC(C)(C)C)s1)C(Nc1cc(C(C)(C)C)c(O)c(C(C)(C)C)c1)=C1C(=O)OC(C)(C)OC1=O (centres unmarked) [Example 19, 5-[[[3,5-Bis(1,1-dimethylethyl)-4-hydroxyphenyl]amino][[[5-(2,2-dimethylpropyl)-2-thienyl]methyl](1-methylheptyl)amino]methylene]-2,2-dimethyl-1,3-dioxane-4,6-dione]			6.19	
COc1ccc(NC(NC(c2ccc(CC(C)(C)C)s2)C2CCCCC2)=C2C(=O)OC(C)(C)OC2=O)c(OC)c1 (centres unmarked) [Example 20, 5-[[[Cyclohexyl-[5-(2,2-dimethylpropyl)-2-thienyl]methyl]amino]-[(2,4-dimethoxyphenyl)amino]-methylene]-2,2-dimethyl-1,3-dioxane-4,6-dione]		95 (25) %		
CCCCCCN(Cc1csc2ccccc12)C(Nc1cc(C(C)(C)C)c(O)c(C(C)(C)C)c1)=C1C(=O)OC(C)(C)OC1=O [Example 21, 5-[(Benzo[b]thiophen-3-ylmethyl-hexyl-amino)-(3,5-di-tert-butyl-4-hydroxy-phenylamino)-methylene]-2,2-dimethyl-[1,3]dioxane-4,6-dione]		98 (25) %	6.42	
CCCCCCN(Cc1cc2ccccc2s1)C(Nc1ccc(OC)cc1OC)=C1C(=O)OC(C)(C)OC1=O [Example 22, 5-[[(Benzo[b]thiophen-2-ylmethyl)-hexyl-amino]-(2,4-dimethoxyphenylamino)-methylene]-2,2-dimethyl-[1,3]dioxane-4,6-]		94 (25) %	6.21	
CCCCCC(C)N(Cc1cc2ccccc2s1)C(Nc1ccc(OC)cc1OC)=C1C(=O)OC(C)(C)OC1=O (centres unmarked) [Example 23, 5-[[Benzo[b]thiophen-2-ylmethyl-(1-methyl-hexyl)-amino]-(2,4-dimethoxy-phenylamino)-methylene]-2,2-dimethyl-[1,3]dioxane-4,6-dione]		97 (25) %	6.46	
CCCCCC(C)N(Cc1cc2ccccc2s1)C(Nc1cc(C(C)(C)C)c(O)c(C(C)(C)C)c1)=C1C(=O)OC(C)(C)OC1=O (centres unmarked) [Example 24, 5-[[Benzo[b]thiophen-2-ylmethyl-(1-methyl-hexyl)-amino]-(3,5-di-tert-butyl-4-hydroxy-phenylamino)methylene]-2,2-dimethyl-[1,3]dioxane-4,6-dione]		98 (25) %	6.51	
